Tests used:
adenosine A2B receptor = adenosine A2B receptor (Homo sapiens (Human), UniProt P29275); assay: Adenosine receptor activity assay (Table 1), A2B activity; format: biochemical; details: for Ratio: A2A activity to A2B activity (A2A/A2B); for IC50: read-out: Ave A2B cAMP IC50
[1] = Hepatocyte (Hep) intrinsic clearance, human; format: in vitro ADME; details: hepatocytes
[2] = Hepatocyte (Hep) intrinsic clearance, rat; format: in vitro ADME; details: hepatocytes
[3] = Liver microsome (LM) intrinsic clearance, rat; format: in vitro ADME
[4] = Liver microsome (LM) intrinsic clearance, human; format: in vitro ADME
adenosine A2A receptor = adenosine A2A receptor (Homo sapiens (Human), UniProt P29274); assay: Adenosine receptor activity assay (Table 1), A2A activity; format: biochemical; details: read-out: Ave A2A cAMP IC50
adenosine A2A receptor, sequence (P29274 whole entry): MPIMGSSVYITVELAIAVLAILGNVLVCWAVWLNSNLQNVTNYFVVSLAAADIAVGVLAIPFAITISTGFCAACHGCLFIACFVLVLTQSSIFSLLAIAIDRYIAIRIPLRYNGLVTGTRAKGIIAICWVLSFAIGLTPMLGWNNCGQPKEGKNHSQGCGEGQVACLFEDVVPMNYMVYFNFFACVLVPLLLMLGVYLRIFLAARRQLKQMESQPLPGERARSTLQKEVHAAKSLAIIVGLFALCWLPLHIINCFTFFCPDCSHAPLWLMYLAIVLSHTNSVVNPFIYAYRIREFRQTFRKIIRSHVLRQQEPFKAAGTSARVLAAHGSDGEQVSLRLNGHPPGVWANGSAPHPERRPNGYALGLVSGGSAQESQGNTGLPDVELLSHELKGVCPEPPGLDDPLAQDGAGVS

CYP3A4 = CYP3A4 (Homo sapiens (Human), UniProt P08684); assay: CYP450 inhibition at 10 μM, CYP3A4; format: in vitro ADME; details: for inhibition at 10 µM: human, read-out: CYP 450 % INH @ 10 μM
CYP3A4, sequence (P08684 whole entry): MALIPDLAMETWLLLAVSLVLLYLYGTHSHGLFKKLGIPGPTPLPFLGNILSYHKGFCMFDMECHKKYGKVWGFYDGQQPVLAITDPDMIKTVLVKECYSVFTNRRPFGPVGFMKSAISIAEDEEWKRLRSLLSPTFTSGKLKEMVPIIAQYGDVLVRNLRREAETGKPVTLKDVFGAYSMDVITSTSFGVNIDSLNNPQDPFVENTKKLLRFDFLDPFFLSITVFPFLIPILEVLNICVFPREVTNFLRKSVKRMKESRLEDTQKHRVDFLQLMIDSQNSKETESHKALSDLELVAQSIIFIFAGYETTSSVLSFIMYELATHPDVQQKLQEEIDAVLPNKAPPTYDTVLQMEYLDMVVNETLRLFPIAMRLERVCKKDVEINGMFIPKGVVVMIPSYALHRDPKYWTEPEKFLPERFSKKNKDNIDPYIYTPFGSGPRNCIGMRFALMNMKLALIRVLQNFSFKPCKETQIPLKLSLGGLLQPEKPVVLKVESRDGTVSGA

adenosine A1 receptor = adenosine A1 receptor (Homo sapiens (Human), UniProt P30542); assay: A1 cAMP IC50 assay (Table 1); format: biochemical
adenosine A1 receptor, sequence (P30542 whole entry): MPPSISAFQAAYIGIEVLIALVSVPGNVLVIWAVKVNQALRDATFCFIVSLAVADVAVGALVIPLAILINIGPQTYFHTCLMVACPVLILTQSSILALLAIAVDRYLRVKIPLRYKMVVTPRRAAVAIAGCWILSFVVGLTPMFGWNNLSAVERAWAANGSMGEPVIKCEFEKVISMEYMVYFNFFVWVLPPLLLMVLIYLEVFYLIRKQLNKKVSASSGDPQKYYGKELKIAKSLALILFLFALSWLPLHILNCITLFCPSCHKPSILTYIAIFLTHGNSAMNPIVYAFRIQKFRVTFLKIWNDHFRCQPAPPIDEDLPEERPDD

adenosine A3 receptor = adenosine A3 receptor (Homo sapiens (Human), UniProt P0DMS8); assay: A3 cAMP IC50 assay (Table 1); format: biochemical
adenosine A3 receptor, sequence (P0DMS8 whole entry): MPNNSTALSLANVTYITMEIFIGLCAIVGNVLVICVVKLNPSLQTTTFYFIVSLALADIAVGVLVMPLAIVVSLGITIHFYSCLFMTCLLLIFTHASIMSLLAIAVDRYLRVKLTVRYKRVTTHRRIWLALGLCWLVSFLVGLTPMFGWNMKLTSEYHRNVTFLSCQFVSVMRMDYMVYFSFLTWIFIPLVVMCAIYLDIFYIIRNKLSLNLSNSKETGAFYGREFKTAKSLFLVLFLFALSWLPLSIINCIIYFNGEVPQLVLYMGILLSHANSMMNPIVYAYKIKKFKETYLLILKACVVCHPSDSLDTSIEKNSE

CYP2D6 = CYP2D6 (Homo sapiens (Human), UniProt P10635); assay: CYP450 inhibition at 10 μM, CYP2D6; format: in vitro ADME; details: read-out: CYP 450 % INH @ 10 μM
CYP2D6, sequence (P10635 whole entry): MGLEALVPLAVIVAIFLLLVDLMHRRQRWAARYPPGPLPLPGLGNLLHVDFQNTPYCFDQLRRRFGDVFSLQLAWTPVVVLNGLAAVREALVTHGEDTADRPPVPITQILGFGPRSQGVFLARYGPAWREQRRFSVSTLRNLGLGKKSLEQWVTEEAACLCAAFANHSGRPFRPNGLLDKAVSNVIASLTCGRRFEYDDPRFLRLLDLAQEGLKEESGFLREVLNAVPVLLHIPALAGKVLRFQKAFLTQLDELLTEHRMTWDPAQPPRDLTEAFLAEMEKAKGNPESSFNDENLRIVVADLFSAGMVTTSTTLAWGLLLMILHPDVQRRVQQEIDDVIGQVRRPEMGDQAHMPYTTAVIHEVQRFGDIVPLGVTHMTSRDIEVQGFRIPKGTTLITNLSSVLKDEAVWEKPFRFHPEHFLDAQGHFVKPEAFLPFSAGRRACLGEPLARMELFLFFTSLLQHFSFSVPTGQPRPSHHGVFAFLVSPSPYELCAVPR

adenosine A2B receptor, sequence (P29275 whole entry): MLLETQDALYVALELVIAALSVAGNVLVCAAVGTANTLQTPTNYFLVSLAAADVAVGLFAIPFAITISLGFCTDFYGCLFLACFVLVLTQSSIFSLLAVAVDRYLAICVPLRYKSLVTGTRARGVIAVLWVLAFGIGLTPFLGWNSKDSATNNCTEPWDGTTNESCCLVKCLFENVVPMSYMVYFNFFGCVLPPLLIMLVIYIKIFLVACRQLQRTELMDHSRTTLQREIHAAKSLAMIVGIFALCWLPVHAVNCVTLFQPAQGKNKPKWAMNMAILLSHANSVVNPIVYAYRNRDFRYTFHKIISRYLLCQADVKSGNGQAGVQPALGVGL

Row | SMILES | Ratio (adenosine A2B receptor) | IC50 (adenosine A2B receptor) | hepatocyte CLint [1] | hepatocyte CLint [2] | LM CLint [3] | LM CLint [4] | IC50 (adenosine A2A receptor) | inhibition at 10 µM (CYP3A4) | IC50 (adenosine A1 receptor) | IC50 (adenosine A3 receptor) | inhibition at 10 µM (CYP2D6) | CYP3A4 IC50 (CYP3A4)
1 | C[C@H](Nc1nc(C(=O)N2CCC2)c2sccc2n1)c1cccnc1 [Example Z2, (S)-Azetidin-1-yl(2-((1-(pyridin-3-yl)ethyl)amino)thieno[3,2-d]pyrimidin-4-yl)methanone] | 31.36 | < 10 nM | 9.27 µL/min/1e6 cells | 37.7 µL/min/1e6 cells | 27.86 μL/min/mg/protein | 23.61 μL/min/mg/protein | 100 to 500 nM | 66% | > 500 nM | > 500 nM | 38% | 
2 | CO[C@H]1CCN(C(=O)c2nc(N[C@@H](C)c3cccnc3)nc3ccsc23)C1 [Example Z18, ((S)-3-Methoxypyrrolidin-1-yl)(2-(((S)-1-(pyridin-3-yl)ethyl)amino)thieno[3,2-d]pyrimidin-4-yl)methanone] | 0.88 | 50 to 100 nM | 12.3 µL/min/1e6 cells | 68.4 µL/min/1e6 cells | 44.15 μL/min/mg/protein | 14.28 μL/min/mg/protein | 50 to 100 nM | 52% | > 500 nM | > 500 nM | 44% | 
3 | O=C(c1nc(NCc2cncc(F)c2)nc2ccsc12)N1CCCC1 [Example Z21, (2-(((5-Fluoropyridin-3-yl)methyl)amino)thieno[3,2-d]pyrimidin-4-yl)(pyrrolidin-1-yl)methanone] |  |  | 23.1 µL/min/1e6 cells | 71.2 µL/min/1e6 cells | 89.01 μL/min/mg/protein | 43.24 μL/min/mg/protein | 100 to 500 nM | 45% |  |  | 4% | 12400 nM
4 | C[C@H](Nc1nc(C(=O)N2CC[C@@H](O)C2)c2sccc2n1)c1cccnc1 [Example Z29, ((R)-3-Hydroxypyrrolidin-1-yl)(2-(((S)-1-(pyridin-3-yl)ethyl)amino)thieno[3,2-d]pyrimidin-4-yl)methanone] | 24.95 | 50 to 100 nM | 4.27 µL/min/1e6 cells | 44 µL/min/1e6 cells | 9.22 μL/min/mg/protein | 4.28 μL/min/mg/protein | > 500 nM | 26% | > 500 nM | > 500 nM | 16% | 
5 | Cc1cncc(CNc2nc(C(=O)N3CCCC3)c3sccc3n2)c1 [Example Z50, (2-(((5-Methylpyridin-3-yl)methyl)amino)thieno[3,2-d]pyrimidin-4-yl)(pyrrolidin-1-yl)methanone] | 5.23 | 10 to 50 nM | 49 µL/min/1e6 cells | 149 µL/min/1e6 cells | 129.90 μL/min/mg/protein | 126.01 μL/min/mg/protein | > 500 nM | 79% |  |  | 32% | 
6 | O=C(c1nc(NCc2cncc(F)c2)nc2ccsc12)N1CC[C@@H](O)C1 [Example Z66, (R)-(2-(((5-Fluoropyridin-3-yl)methyl)amino)thieno[3,2-d]pyrimidin-4-yl)(3-hydroxypyrrolidin-1-yl)methanone] | 15.71 | 10 to 50 nM | 7.1 µL/min/1e6 cells | 21.2 µL/min/1e6 cells | 14.07 μL/min/mg/protein | 16.45 μL/min/mg/protein | 100 to 500 nM | 24% |  |  | 4% | 
7 | C[C@H](Nc1nc(C(=O)N2CCCC2)c2sccc2n1)c1cccc(F)c1 [Example Z125, (S)-(2-((1-(3-Fluorophenyl)ethyl)amino)thieno[3,2-d]pyrimidin-4-yl)(pyrrolidin-1-yl)methanone] | 15.42 | < 10 nM | 42.8 µL/min/1e6 cells | 144 µL/min/1e6 cells |  |  | 100 to 500 nM | -50.9% | > 500 nM | > 500 nM |  | 

Second part, the compound after the results:

Row | Ratio (adenosine A2B receptor) | IC50 (adenosine A2B receptor) | hepatocyte CLint [1] | hepatocyte CLint [2] | LM CLint [3] | LM CLint [4] | IC50 (adenosine A2A receptor) | inhibition at 10 µM (CYP3A4) | IC50 (adenosine A1 receptor) | IC50 (adenosine A3 receptor) | inhibition at 10 µM (CYP2D6) | CYP3A4 IC50 (CYP3A4) | SMILES
8 | 7.83 | 10 to 50 nM | 7.75 µL/min/1e6 cells | 47.6 µL/min/1e6 cells | 20.43 μL/min/mg/protein | 17.06 μL/min/mg/protein | 100 to 500 nM | 74% | > 500 nM | > 500 nM | 41% |  | C[C@H](Nc1nc(C(=O)N2CC[C@@H](F)C2)c2sccc2n1)c1cccnc1 [Example Z8, ((R)-3-Fluoropyrrolidin-1-yl)(2-(((S)-1-(pyridin-3-yl)ethyl)amino)thieno[3,2-d]pyrimidin-4-yl)methanone]
9 | 2.55 | 10 to 50 nM | 11.4 µL/min/1e6 cells | 70.1 µL/min/1e6 cells | 28.41 μL/min/mg/protein | 15.83 μL/min/mg/protein | 50 to 100 nM | 71% |  |  | 20% |  | C[C@H](Nc1nc(C(=O)N2CC[C@H](F)C2)c2sccc2n1)c1cccnc1 [Example Z9, ((S)-3-Fluoropyrrolidin-1-yl)(2-(((S)-1-(pyridin-3-yl)ethyl)amino)thieno[3,2-d]pyrimidin-4-yl)methanone]
10 | 1.67 | 10 to 50 nM | 14.5 µL/min/1e6 cells | 58.6 µL/min/1e6 cells | 32.42 μL/min/mg/protein | 17.68 μL/min/mg/protein | 50 to 100 nM | 46% | > 500 nM | > 500 nM | 13% |  | COc1ccc(CNC(=O)c2nc(N[C@@H](C)c3ccccn3)nc3ccsc23)cn1 [Example Z16, (S)—N-((6-Methoxypyridin-3-yl)methyl)-2-((1-(pyridin-2-yl)ethyl)amino)thieno[3,2-d]pyrimidine-4-carboxamide]
11 | 1.37 | 10 to 50 nM | 12.9 µL/min/1e6 cells | 83.4 µL/min/1e6 cells | 63.06 μL/min/mg/protein | 17.60 μL/min/mg/protein | 10 to 50 nM | 42% | > 500 nM | 50 to 100 nM | 51% |  | CO[C@@H]1CCN(C(=O)c2nc(N[C@@H](C)c3cccnc3)nc3ccsc23)C1 [Example Z19, ((R)-3-Methoxypyrrolidin-1-yl)(2-(((S)-1-(pyridin-3-yl)ethyl)amino)thieno[3,2-d]pyrimidin-4-yl)methanone]
12 | 7.15 | < 10 nM | 10.9 µL/min/1e6 cells | 42.7 µL/min/1e6 cells | 14.92 μL/min/mg/protein | 13.51 μL/min/mg/protein | 50 to 100 nM | 10% |  |  | 0% |  | C[C@H](Nc1nc(C(=O)N2CC[C@H](F)C2)c2sccc2n1)c1ccccn1 [Example Z53, ((S)-3-Fluoropyrrolidin-1-yl)(2-(((S)-1-(pyridin-2-yl)ethyl)amino)thieno[3,2-d]pyrimidin-4-yl)methanone]
13 | 72.09 | < 10 nM | 17.9 µL/min/1e6 cells | 72.9 µL/min/1e6 cells |  |  | 100 to 500 nM | 62.7% | > 500 nM | > 500 nM |  |  | C[C@H](Nc1nc(C(=O)N2CCCC2)c2sccc2n1)c1cncc(F)c1 [Example Z134, (S)-(2-((1-(5-Fluoropyridin-3-yl)ethyl)amino)thieno[3,2-d]pyrimidin-4-yl)(pyrrolidin-1-yl)methanone]
